Several values for one entry are separate records, joined by “and”; a condition that tells them apart may be missing. Equal entries are not always repeated. Where two headings read alike, the source gives them in different places.

For data set [1] the following is noted: approximate, cited from earlier work.
The target in data set [2] is T1, AF647‐labeled hCD1d (Homo sapiens, UniProt P15813+P61769).
T1 construct: TEV protease cleavage site ENLYFQS (C); BirA biotinylation site (C); His7 (C); made in house; host or cells: TurboCHO cells (GenScript)
In words: Microscale thermophoresis (MST) binding assay. The source says:
(§1) The experimental limitations of ITF, such as low instrument sensitivity, high sample consumption, signal overlap with some ligands, and low throughput (Fossum et al., [2023]), made it necessary to employ alternative, complementary assays to quantify detergent binding to hCD1d. […] MST measures the diffusion of fluorescent molecules in response to microscopic temperature gradients (Seidel et al., [2013]). When a protein forms a complex with a ligand, changes in hydrodynamic properties, charge, or solvation energy alter its thermophoretic behavior, allowing detection of binding events. To perform MST experiments, Alexa Fluor 647 (AF647) dye was covalently attached to the primary amines of hCD1d via standard N‐hydroxysuccinimide coupling chemistry (Anderson et al., [1964]). The concentration of AF647‐hCD1d was kept constant, and the change in MST signal was measured as a function of increasing detergent concentration (Figure S3). Like ITF, any lipid or detergent that destabilizes CD1 can also alter the MST signal since unfolding changes the protein's Stokes radius and its thermophoretic behavior. […] This is why we compare MST results with ITF and nanoDSF, as described below.
(§2) For MST, hCD1d was fluorescently labeled with AF647‐NHS Ester (Invitrogen #A20006). Briefly, a 10 mM stock of AF647‐NHS was prepared in anhydrous DMSO. Then, 100 μL of 50 μM hCD1d in 1X PBS pH 7.4 was mixed with 1 μL of 10 mM AF647‐NHS (1:2 molar ratio of protein: dye). The mixture was allowed to react for 1 h in the dark at 25°C. Unreacted dye was removed from the protein–dye conjugate by performing size exclusion chromatography in the dark with a Superdex 200 Increase 10/300 GL column at a flow rate of 0.5 mL/min in SEC buffer (100 mM NaCl, 20 mM sodium phosphate, pH 7.2). The degree of labeling was determined by a NanoDrop spectrophotometer at A647 nm (dye absorbance) and A280 nm (hCD1d absorbance). The degree of labeling was determined from the ratio of dye concentration to protein concentration. The degree of labeling was ~75%.
(§3) MST experiments were performed using a Monolith NT.115 instrument (NanoTemper Technologies) using Monolith standard capillaries and the red excitation laser setup. The following settings were applied for all MST experiments: excitation power: 30%–50%, MST power: medium, before MST time: 3 s, MST on time (IR laser): 20 seconds, and after MST time: 1 s. MST measurements were analyzed using the Monolith Affinity Analysis software v2.3 and exported for plotting in GraphPad Prism v10.1. Three replicates were performed, and data are presented as the mean ± standard deviation (n = 3).
(§4) MST measurements of 100 nM AF647‐hCD1d were acquired in the absence and presence of detergents in 1X PBS pH 7.4 at 25°C. Prior to data acquisition, hCD1d and detergent or lipid samples were incubated at 37°C overnight (~12 h) to simulate in vitro and in vivo loading conditions. […] For 18:1 LPC experiments: MST data of 100 nM AF647‐hCD1d were acquired in the absence and presence of 18:1 LPC in 1X PBS pH 7.4 at 25°C.
(Microscale thermophoresis detects binding through changes in fluorescence in a small temperature gradient.)

Data set [3] has as its system CD1c. Further details: method as in Mansour et al., 2016. The settings on record: ref Mansour et al., 2016; cited from earlier work.
The target of data set [4] is hCD1d (Homo sapiens, UniProt P15813+P61769). In words: Nano differential scanning fluorimetry (nanoDSF) thermal stability. The arrangement: TEV protease cleavage site ENLYFQS (C); BirA biotinylation site (C); His7 (C); made in house; host or cells: TurboCHO cells (GenScript). The settings on record: absence vs presence of 200 μM 18:1 LPC; no detergent. The format is binding. The source says: We next sought to probe the ability of each detergent to influence the thermal stability of hCD1d. NanoDSF has been previously applied to measure lipid/detergent‐induced thermal stability changes in target proteins (Cecchetti et al., [2021]; Kotov et al., [2019]), but has not yet been applied to ligand binding to CD1. NanoDSF measures the ITF ratio (F 350 nm/F 330 nm) of proteins as a function of temperature to extract thermodynamic parameters. Given that ligand binding typically shifts the melting temperature of proteins, the effect of a ligand on protein stability can be approximated with the ΔT m value (the difference in T m with and without excess ligand) (Cecchetti et al., [2021]; Kotov et al., [2019]). We found all detergents tested to destabilize hCD1d, albeit to different degrees, with ΔT m values ranging from −0.8 to −14.2°C (Figures 4, S4, and Table 1).
Nano differential scanning fluorometry (nanoDSF) was performed using a Prometheus NT.48 (NanoTemper Technologies). Purified hCD1d at 1 μM in 1X PBS pH 7.4 was loaded into nanoDSF grade standard capillaries (NanoTemper Technologies) and exposed to temperatures ranging from 20 to 95°C with a thermal ramping rate of 1°C/min. Excitation power was set to 50%. The ratio of intrinsic fluorescence emission (F 350 nm/F 330 nm) was monitored. Melting temperatures (T m) were obtained from fitting the first derivative plots in the Prometheus NT.48 Software. The experiments were performed in triplicate, and data are presented as the mean ± standard deviation (n = 3).
For experiments with most detergents, prior to data acquisition, hCD1d and detergent or lipid samples were incubated at 37°C overnight (~12 h) to simulate in vitro and in vivo loading conditions. […] For 18:1 LPC experiments: nanoDSF spectra were acquired in the absence and presence of 18:1 LPC in 1X PBS pH 7.4 at 25°C.
In general terms: Differential scanning fluorimetry follows unfolding on heating by fluorescence.

Data set [5] has as its target T2, recombinant human CD1d ectodomain/β2m complex (hCD1d) (Homo sapiens, UniProt P15813).
T2 construct: TEV protease cleavage site ENLYFQS (C); BirA biotinylation site (C); His7 (C); made in house; host or cells: TurboCHO cells (GenScript)
In words: Intrinsic tryptophan fluorescence (ITF) binding assay. The settings on record: 18:1 LPC titration with 0.05% CHAPS; read-out: K D (ITF) of lipid. The protocol:
For ITF assays, the concentration of hCD1d was kept constant, and intrinsic Trp fluorescence (excitation at 285 nm, emission at 335 nm) was measured as a function of increasing detergent concentration (Fossum et al., [2023]) (Figure S2). The change in relative fluorescence intensity (F − F 0/F 0) provides an indication of binding. […] This was due to limited detergent solubility and decreased hCD1d stability in the presence of a large excess of detergent (see below). […] SDS was the exception, for which Trp fluorescence of hCD1d decreased with added detergent. This could indicate a unique conformational change or destabilization of the protein.
ITF spectra were recorded from 300 to 500 nm using a Horiba FL3‐21 Fluorometer with the excitation wavelength of 285 nm and excitation/emission slits of 6.2 nm. Fluorescence spectra of 50 to 100 nM hCD1d were acquired in the absence and presence of detergents in 1X PBS pH 7.4 at 25°C. Prior to data acquisition, hCD1d and detergent or lipid samples were incubated at 37°C overnight (~12 h) to simulate in vitro and in vivo loading conditions. […] For 18:1 LPC experiments, fluorescence spectra of 100 nM hCD1d were acquired in the absence and presence of 18:1 LPC in 1X PBS pH 7.4 at 25°C. […] For all ITF experiments, the change in fluorescence signal (F − F 0/F 0) was determined at 335 nm. Three replicates were performed, and data are presented as the mean ± standard deviation (n = 3). K D values were fitted with non‐linear regression in GraphPad Prism v10.1.

Data set [6] deals with T3, AF647‐labeled hCD1d (Homo sapiens, UniProt P15813).
T3 construct: TEV protease cleavage site ENLYFQS (C); BirA biotinylation site (C); His7 (C); made in house; host or cells: TurboCHO cells (GenScript)
In words: Microscale thermophoresis (MST) binding assay. The settings on record: read-out: K D (MST) of lipid.
From the text: as §1, §2, §3, §4

[7] abbreviates: 0.001 M detergent, 100 nM AF647‐hCD1d.
[8] abbreviates: Figure 5B, detergent binding to hCD1d, read-out: MST - Kd (uM) average.
Where [9] appears, read: detergent with 100 nM AF647‐labeled hCD1d, 25°C, apparent, read-out: K D (MST).

T1 sequence (P61769+P15813 fused): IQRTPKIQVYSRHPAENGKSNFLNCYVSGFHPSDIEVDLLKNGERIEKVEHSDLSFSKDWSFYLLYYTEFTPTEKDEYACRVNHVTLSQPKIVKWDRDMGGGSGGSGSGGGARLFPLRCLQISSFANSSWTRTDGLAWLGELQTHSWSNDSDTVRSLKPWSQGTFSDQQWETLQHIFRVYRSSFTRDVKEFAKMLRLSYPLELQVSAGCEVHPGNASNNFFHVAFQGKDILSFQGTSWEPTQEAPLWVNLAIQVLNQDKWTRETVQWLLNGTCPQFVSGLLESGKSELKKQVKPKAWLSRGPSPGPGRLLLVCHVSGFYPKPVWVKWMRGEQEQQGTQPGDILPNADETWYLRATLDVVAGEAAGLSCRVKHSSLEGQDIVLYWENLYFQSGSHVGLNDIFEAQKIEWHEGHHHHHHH
T3 sequence (P15813 whole entry, looked up): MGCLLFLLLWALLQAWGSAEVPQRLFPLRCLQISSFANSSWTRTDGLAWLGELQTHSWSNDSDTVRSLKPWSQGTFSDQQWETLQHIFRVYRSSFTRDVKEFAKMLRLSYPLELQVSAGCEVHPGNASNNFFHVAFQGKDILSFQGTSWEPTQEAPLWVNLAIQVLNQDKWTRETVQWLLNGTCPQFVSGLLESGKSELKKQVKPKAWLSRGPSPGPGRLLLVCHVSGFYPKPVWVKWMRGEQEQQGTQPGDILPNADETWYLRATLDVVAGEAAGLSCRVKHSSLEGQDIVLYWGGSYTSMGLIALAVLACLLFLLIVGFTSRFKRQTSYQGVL
hCD1d, sequence (P61769+P15813 fused): as the sequence (P61769+P15813 fused) above
T2 sequence (P15813 whole entry, looked up, the tested form may be a part, one chain of several): as the sequence (P15813 whole entry, looked up) above

With NP‐40, the CMC in data set [1] (ref Fisher catalogue) was 290 µM; in data set [1] (weight/volume, ref Fisher catalogue), 0.0179%. Further, the “Fnorm (rep 1-3)” value in data set [2] (3.05176e-8 M detergent) is 785.26 ‰ and 791.115 ‰ and 789.222 ‰; in data set [2] (6.10352e-8 M detergent) it was 784.438 ‰ and 791.56 ‰ and 788.778 ‰; in data set [2] (1.2207e-7 M detergent), 784.577 ‰ and 791.858 ‰ and 788.445 ‰; in data set [2] (2.44141e-7 M detergent) it was 783.564 ‰ and 789.878 ‰ and 788.022 ‰; in data set [2] (4.88281e-7 M detergent), 786.159 ‰ and 790.976 ‰ and 787.911 ‰; in data set [2] (9.76563e-7 M detergent), 783.182 ‰ and 790.102 ‰ and 788.409 ‰. In addition, the “Fnorm (rep 1-3)” value in data set [2] (1.95313e-6 M detergent) was 785.891 ‰ and 792.21 ‰ and 790.819 ‰; in data set [2] (3.90625e-6 M detergent), 790.454 ‰ and 796.89 ‰ and 795.418 ‰; in data set [2] (7.8125e-6 M detergent), 794.424 ‰ and 799.885 ‰ and 798.852 ‰; in data set [2] (1.5625e-5 M detergent), 798.147 ‰ and 805.399 ‰ and 802.688 ‰; in data set [2] (3.125e-5 M detergent) it was 808.083 ‰ and 815.048 ‰ and 810.611 ‰; in data set [2] (6.25e-5 M detergent), 810.692 ‰ and 818.134 ‰ and 815.29 ‰. For the same compound, the “Fnorm (rep 1-3)” value is 813.488 ‰ and 820.003 ‰ and 816.128 ‰ in data set [2] (0.000125 M detergent); 817.047 ‰ and 822.493 ‰ and 816.971 ‰ in data set [2] (0.00025 M detergent); 814.88 ‰ and 822.01 ‰ and 817.951 ‰ in data set [2] (0.0005 M detergent); 817.154 ‰ and 821.721 ‰ and 817.771 ‰ in data set [2] (setting [7]). Besides, the values for the Kd in data set [2] (setting [8]) and in data set [2] (setting [9]) were 15.1 µM and 15.1 ± 1.5 µM, respectively.

Take Triton X‐100: the “stripping of lipid antigens from CD1c (in words)” value in data set [3] is “could efficiently strip lipid antigens away”. The CMC in data set [1] (ref Anatrace catalogue) was 230 µM; in data set [1] (weight/volume, ref Anatrace catalogue) it was 0.015%. The “Fnorm (rep 1-3)” value in data set [2] (3.05176e-8 M detergent) is 791.41 ‰ and 793.583 ‰ and 796.04 ‰; in data set [2] (6.10352e-8 M detergent), 790.759 ‰ and 794.057 ‰ and 796.294 ‰; in data set [2] (1.2207e-7 M detergent), 791.349 ‰ and 794.228 ‰ and 797.32 ‰; in data set [2] (2.44141e-7 M detergent), 790.267 ‰ and 793.445 ‰ and 796.715 ‰; in data set [2] (4.88281e-7 M detergent) it was 790.372 ‰ and 793.504 ‰ and 796.705 ‰; in data set [2] (9.76563e-7 M detergent) it was 791.231 ‰ and 794.12 ‰ and 796.582 ‰. Moreover, the “Fnorm (rep 1-3)” value is 791.888 ‰ and 794.837 ‰ and 796.079 ‰ in data set [2] (1.95313e-6 M detergent); 797.735 ‰ and 798.529 ‰ and 800.673 ‰ in data set [2] (3.90625e-6 M detergent); 801.114 ‰ and 802.717 ‰ and 802.805 ‰ in data set [2] (7.8125e-6 M detergent); 806.412 ‰ and 805.281 ‰ and 808.579 ‰ in data set [2] (1.5625e-5 M detergent); 808.925 ‰ and 810.844 ‰ and 811.355 ‰ in data set [2] (3.125e-5 M detergent); 813.586 ‰ and 816.925 ‰ and 817.48 ‰ in data set [2] (6.25e-5 M detergent). Further, the “Fnorm (rep 1-3)” value was 826.07 ‰ and 832.084 ‰ and 828.584 ‰ in data set [2] (0.000125 M detergent); 828.437 ‰ and 829.609 ‰ and 830.632 ‰ in data set [2] (0.00025 M detergent); 829.715 ‰ and 832.769 ‰ and 836.286 ‰ in data set [2] (0.0005 M detergent); 833.009 ‰ and 835.212 ‰ and 836.54 ‰ in data set [2] (setting [7]). Moreover, the Kd in data set [2] (setting [8]) came out at 45.8 µM; in data set [2] (setting [9]), 45.8 ± 7.9 µM.

`CCCCCCCC/C=C\CCCCCCCC(=O)OC[C@@H](O)COP(=O)([O-])OCC[N+](C)(C)C` [18:1 LPC, 1‐oleoyl‐2‐hydroxy‐sn‐glycero‐3‐phosphocholine]: the “ΔT m (nanoDSF) of lipid” value in data set [4] is −8.1 ± 1.7 °C. For the same compound, the Kd was 59.9 ± 19.4 µM in data set [5]; 5.6 ± 1.3 µM in data set [6] (18:1 LPC titration with 0.05% CHAPS); ~7.7 µM and 7.7 µM in data set [6] (18:1 LPC titration, absence of detergent, 100 nM AF647‐hCD1d, 25°C).

The record behind these values is paper PMC12720774, “Detergents alter the stability and lipid binding properties of the CD1d immunoreceptor” (Protein Science : A Publication of the Protein Society, 2025).
